According to patent US20220322673A1, “Novel Agrochemical Combinations” (UPL LIMITED, priority 2019, published 2022):
Where two headings read alike, the source gives them in different places.

Experiments:
Type in all cases: in vivo
[1] = system: Okra Jassids (Amrasca bigutulla bigutulla); conditions: for Percent control (%) of Okra Jassids, Nymphs + Adults, A01: A01 = 1 day after first spray; for Percent control (%) of Okra Jassids, Nymphs + Adults, A10: A10 (after 1st spray); for Percent control (%) of Okra Jassids, Nymphs + Adults, B03: B03 = 3 days after 2nd spray; for Percent control (%) of Okra Jassids, Nymphs + Adults, B07: B07 (after 2nd spray); for Percent control (%) of Okra Jassids, Nymphs + Adults, B10: B10 (after 2nd spray); for Percent control (%) of Okra Jassids, Nymphs + Adults, B14: B14 (after 2nd spray); for Percent control (%) of Okra Jassids, Nymphs + Adults, C03: C03 = 3 days after third spray; for Percent control (%) of Okra Jassids, Nymphs + Adults, C10: C10 (after third spray)
Excerpt: (§1) In this evaluation, feeding damage & insect population on Okra Leaves before and after sprays is averaged and analyzed for the test of significance. Application method: Three applications (application A, B and C) within an interval of 14 days.

[2] = system: Okra Aphids (Aphis gossypii); conditions: for Percent control (%) of Okra Aphids, Nymphs + Adults, A01: A01 = 1 day after first spray; for Percent control (%) of Okra Aphids, Nymphs + Adults, B03: B03 = 3 days after 2nd spray; for Percent control (%) of Okra Aphids, Nymphs + Adults, B07: B07 (after 2nd spray); for Percent control (%) of Okra Aphids, Nymphs + Adults, B10: B10 (after 2nd spray); for Percent control (%) of Okra Aphids, Nymphs + Adults, C03: C03 = 3 days after third spray; for Percent control (%) of Okra Aphids, Nymphs + Adults, C10: C10 (after third spray)
Excerpt: as §1

[3] = system: Okra Aphids; test: Trials of Flonicamid and Orthosilicic acid on controlling Okra Aphids (Example 1); conditions: doses gm/ha: OSA + Flonicamid 625 + 50, Flonicamid 75, OSA 1250
Procedure: Trials were conducted to test the efficacy of the combination of Flonicamid and Orthosilicic acid on controlling Okra Aphids at different dosages.

[4] = system: Okra Mites; test: Trials on controlling Okra Mites post 2nd and 3rd application (Example 2); conditions: doses gm/ha: OSA 625 + Flonicamid 50 / Acetamipirid 50 / Lancer Gold 650, solo OSA 1250, Flonicamid 75, Acetamipirid 50, Lancer gold 650
Procedure: Trials were conducted to test the efficacy of the combination of Flonicamid and Orthosilicic acid on controlling Okra Mites at different dosages post 2nd and 3rd application.

[5] = system: Corn FAW (Spodoptera frugiperda); conditions: for Percent control (%) A01: A01 = 1 day after first spray; for Percent control (%) A14: A14 = 14 days after 1st spray; for Percent control (%) B03: B03 = 3 days after 2nd spray; for Percent control (%) B07: B07 (after 2nd spray); for Percent control (%) B10: B10 (after 2nd spray); for Percent control (%) B21: B21 (after 2nd spray)
Excerpt: Application method: Two applications (application A and B) within an interval of 14 days. A01=1 day after first spray, A14=14 days after 1st spray, B03=3 days after 2nd spray.

[6] = 25% reduced dose rate, gm a.i./ha: OSA 25, Flonicamid 75, Acephate+Imidacloprid 390, Flonicamid+Fipronil 75+37.5, Imidacloprid 18.3, Acetamiprid 11.2
[7] = doses gm a.i./ha: OSA 25, Flonicamid 100, Acephate+Imidacloprid 520, Flonicamid+Fipronil 100+50, Imidacloprid 24.5, Acetamiprid 15
[8] = reduced insecticide dose, gm a.i./ha: OSA 25, Flonicamid (Ulala) 75, Acephate+Imidacloprid 390, Flonicamid+Fipronil 75+37.5, Imidacloprid 18.3, Acetamiprid 11.2
[9] = 25% reduced dose of insecticide, gm a.i./ha: OSA 25, CTPR 22.5, Acephate 730, Novaluron 56, Novaluron+Lambda cyhalothrin 67.5, Novaluron+Emamectin 93.5
[10] = doses gm a.i./ha: OSA 25, CTPR 30, Acephate 970, Novaluron 75, Novaluron+Lambda cyhalothrin 90, Novaluron+Emamectin 125

## orthosilicic acid [OSA]
[1]; [6]
  Percent control (%) of Okra Jassids, Nymphs + Adults, A01: 27.9%
  Percent control (%) of Okra Jassids, Nymphs + Adults, A10: 37%
  Percent control (%) of Okra Jassids, Nymphs + Adults, B03: 40.9%
  Percent control (%) of Okra Jassids, Nymphs + Adults, B07: 47.9%
  Percent control (%) of Okra Jassids, Nymphs + Adults, B10: 48.6%
  Percent control (%) of Okra Jassids, Nymphs + Adults, B14: 43%
  Percent control (%) of Okra Jassids, Nymphs + Adults, C03: 45.5%
  Percent control (%) of Okra Jassids, Nymphs + Adults, C10: 49.1%
[1]; [7]
  Percent control (%) of Okra Jassids, Nymphs + Adults, A01: 25.3%
  Percent control (%) of Okra Jassids, Nymphs + Adults, A10: 35.8%
  Percent control (%) of Okra Jassids, Nymphs + Adults, B03: 42.7%
  Percent control (%) of Okra Jassids, Nymphs + Adults, B07: 46.5%
  Percent control (%) of Okra Jassids, Nymphs + Adults, B10: 45.5%
  Percent control (%) of Okra Jassids, Nymphs + Adults, B14: 44.7%
  Percent control (%) of Okra Jassids, Nymphs + Adults, C03: 46.9%
  Percent control (%) of Okra Jassids, Nymphs + Adults, C10: 48.6%
[2]; [7]
  Percent control (%) of Okra Aphids, Nymphs + Adults, A01: 32.3%
  Percent control (%) of Okra Aphids, Nymphs + Adults, B03: 52%
  Percent control (%) of Okra Aphids, Nymphs + Adults, B07: 56%
  Percent control (%) of Okra Aphids, Nymphs + Adults, B10: 56.1%
  Percent control (%) of Okra Aphids, Nymphs + Adults, C03: 57%
  Percent control (%) of Okra Aphids, Nymphs + Adults, C10: 59.7%
[2]; [8]
  Percent control (%) of Okra Aphids, Nymphs + Adults, A01: 30.2%
  Percent control (%) of Okra Aphids, Nymphs + Adults, B03: 55%
  Percent control (%) of Okra Aphids, Nymphs + Adults, B07: 57.7%
  Percent control (%) of Okra Aphids, Nymphs + Adults, B10: 55.7%
  Percent control (%) of Okra Aphids, Nymphs + Adults, C03: 59.4%
  Percent control (%) of Okra Aphids, Nymphs + Adults, C10: 60.3%
[2]; A10 (after 1st spray), doses gm a.i./ha: OSA 25, Flonicamid 100, Acephate+Imidacloprid 520, Flonicamid+Fipronil 100+50, Imidacloprid 24.5, Acetamiprid 15
  Percent control (%) of Okra Aphids, Nymphs + Adults, A10: 48.5%
[2]; A14 = 14 days after 1st spray, reduced insecticide dose, gm a.i./ha: OSA 25, Flonicamid (Ulala) 75, Acephate+Imidacloprid 390, Flonicamid+Fipronil 75+37.5, Imidacloprid 18.3, Acetamiprid 11.2
  Percent control (%) of Okra Aphids, Nymphs + Adults, A14: 47%
[3]; B01
  Percent control B01: 29.6%
[3]; C-01
  Percent control C-01: 23.3%
[3]; C-10
  Percent control C-10: 26.7%
[3]; Mean of B01, C-01, C-10
  Percent control Mean: 26.53%
[4]; B07
  Percent control B07: 10%
[4]; C-01
  Percent control C-01: 19.3%
[4]; C-10
  Percent control C-10: 11.7%
[4]; Mean of B07, C-01, C-10
  Percent control Mean: 13.66%
[5]; [9]
  Percent control (%) A01: 29.3%
  Percent control (%) A14: 44.8%
  Percent control (%) B03: 51.9%
  Percent control (%) B07: 61.4%
  Percent control (%) B10: 57.9%
  Percent control (%) B21: 56.5%
[5]; [10]
  Percent control (%) A01: 32.4%
  Percent control (%) A14: 47.4%
  Percent control (%) B03: 53.7%
  Percent control (%) B07: 58.6%
  Percent control (%) B10: 60.6%
  Percent control (%) B21: 59.0%
